ChEMBL document CHEMBL3124773, “Stereoselective preparation of pyridoxal 1,2,3,4-tetrahydro-β-carboline derivatives and the influence of their absolute and relative configuration on the proliferation of the malaria parasite Plasmodium falciparum” (Bioorg Med Chem, 2014)

system: Plasmodium falciparum; experiment: Antiplasmodial activity against Plasmodium falciparum 3D7 infected in human erythrocytes after 48 hrs by [3H]hypoxanthine incorporation assay; type: functional, organism-based

IC50	SMILES
108 µM	COC(=O)[C@H]1Cc2c([nH]c3ccccc23)[C@@H](c2c(CO)cnc(C)c2O)N1
8 µM	COC(=O)[C@H]1Cc2c([nH]c3ccccc23)[C@H](c2c(CO)cnc(C)c2O)N1
14 µM	COC(=O)C1Cc2c([nH]c3ccccc23)C(c2c(CO)cnc(C)c2O)N1 (stereo not given)
22 µM	COC(=O)[C@@H]1Cc2c([nH]c3ccccc23)[C@@H](c2c(CO)cnc(C)c2O)N1
91 µM	COC(=O)[C@@H]1Cc2c([nH]c3ccccc23)[C@H](c2c(CO)cnc(C)c2O)N1
